Earlier results on 1 molecule are cited in patent publication US10702472B2, “Production method of edible sustained-release functional material and edible sustained-release functional material” (AOBAKASEI KABUSHIKI KAISHA, priority 2017, dated 2020).

For this data set the following is noted: generally known value.

Turning to `O=C[C@H](O)[C@@H](O)[C@H](O)[C@H](O)CO` [glucose], the collapse temperature is −40 °C.
